How the values were obtained:
[1] = molecular target: T1, human CB2 (Homo sapiens (Human), UniProt P34972); assay: In vitro binding affinity, [3H]CP-55,940 radioligand displacement, HEK cell membranes overexpressing human CB2; settings: [3H]CP-55,940 displacement, read-out: hCB2 Ki
Experimental: (§1) In vitro binding affinity determination using radioligand displacement. Plasma membranes were isolated from HEK cells overexpressing either human CB1 or CB2. Binding was initiated with the addition of 40 μg of cell membrane proteins to assay tubes containing [3H]CP-55,940 (ca. 130 Ci/mmol), a test compound (for displacement studies), and a sufficient quantity of buffer (50 mM Tris-HCl, 1 mM EDTA, 3 mM MgCl2, 5 mg/mL BSA, pH 7.4) to bring the total incubation volume to 0.5 mL. Nonspecific binding was determined by the inclusion of 10 μM unlabeled CP-55,940. Following incubation at 30° C. for 1 h, binding was terminated by vacuum filtration through GF/C glass fiber filter plates. The filter plates were washed extensively and air-dried and sealed on the bottom. Liquid scintillate was added to the wells and the top sealed. After incubating the plates in cocktail for at least 2 h, the radioactivity present was determined by liquid scintillation spectrometry. Assays were done in duplicate, and results represent combined data from 3-6 experiments. Saturation and displacement data were analyzed by unweighted nonlinear regression of receptor binding data. For displacement studies, curve-fitting and IC50 calculation were done with GraphPad Prism (GraphPad Software, Inc., San Diego, CA).
(§2) Reference is made to the following reference, hereby incorporated by reference with regard to such assay, Zhang et al., Synthesis and biological evaluation of bivalent ligands for the cannabinoid 1 receptor, J Med Chem. 2010 Oct. 14; 53 (19):7048-60. doi: 10.1021/jm1006676.

[2] = molecular target: T2, human CB1 (Homo sapiens (Human), UniProt P21554); assay: In vitro cannabinoid receptor activity assay (calcium mobilization, FLIPR) in CHO cells expressing human CB1 and Gαq16; type: cell-based; settings: for EC50: CHO cells, hCB1, calcium fluorescence, read-out: hCB1 Ca EC50; for hCB1 Ca Span: percentage of the maximum CP55940 signal
Experimental: (§3) In vitro cannabinoid receptor activity assay. Chinese Hamster Ovary (CHO) cells stably expressing either human CB1 or CB2 cDNA and the promiscuous G-protein Gαq16 were transferred to each well of a black Costar 96-well optical bottom plate (Corning Corporation). Each plate was incubated at 37° C. for 24 hr to confluence. The culture media was removed from the plates and cells were subsequently loaded with a fluorescent calcium probe (Calcium 5 dye, Molecular Devices) at a final loading concentration of 2 μM in a HBSS-based buffer containing 20 mM HEPES, 1% BSA and 10 μM Probenecid (Sigma) in a total volume of 225 μl. Cells were incubated at 37° C. for 1 hr and then stimulated with various concentrations of a test agent using a FLIPR Tetra plate-reader, which automatically added the agonist at 10× concentration to each well after reading baseline values for ˜17 sec. Agonist-mediated change in fluorescence (488 nm excitation, 525 nm emission) was monitored in each well at 1 sec intervals for 60 sec and reported for each well. Data were analyzed using Prism software (GraphPad). Non-linear regression analysis was performed to fit data and obtain maximum response (Emax), effective concentration for 50% response (EC50), correlation coefficient (r2) and other parameters. All experiments were performed 3-6 times to ensure reproducibility.
(§4) Reference is made to the following reference, hereby incorporated by reference with regard to such assay, Seltzman, et al., Peripherally Selective Cannabinoid 1 Receptor (CB1R) Agonists for the Treatment of Neuropathic Pain, J Med Chem. 2016 Aug. 25; 59 (16):7525-43. doi: 10.1021/acs.jmedchem.6b00516. Epub 2016 Aug. 10.

[3] = molecular target: T2, human CB1; assay: In vitro binding affinity, [3H]CP-55,940 radioligand displacement, HEK cell membranes overexpressing human CB1; settings: [3H]CP-55,940 displacement, read-out: hCB1 Ki
Experimental: as §1, §2

[4] = molecular target: T1, human CB2; assay: In vitro cannabinoid receptor activity assay (calcium mobilization, FLIPR) in CHO cells expressing human CB2 and Gαq16; type: cell-based; settings: for EC50: CHO cells, hCB2, calcium fluorescence, read-out: hCB2 Ca EC50; for hCB2 Ca Span: percentage of the maximum CP55940 signal
Experimental: as §3, §4

Compound: C[C@H](NC(=O)c1nn(Cc2ccc(F)cc2)c2ccccc12)c1cccc(C(N)=O)c1 [Example 11, N-[(1S)-1-(3-Carbamoylphenyl)ethyl]-1-[(4-fluorophenyl)methyl]-1H-indazole-3-carboxamide]
- Ki [1]: 34 nM
- EC50 [2]: 27 nM
- hCB1 Ca Span [2]: 86%
- Ki [3]: 7 nM
- EC50 [4]: 50 nM
- hCB2 Ca Span [4]: 48%

Compound: CC(C)(NC(=O)c1nn(Cc2ccc(F)cc2F)c2ccccc12)c1cccc(C(N)=O)c1 [Example 13, N-[2-(3-Carbamoylphenyl)propan-2-yl]-1-[(2,4-difluorophenyl)methyl]-1H-indazole-3-carboxamide]
- Ki [1]: 27 nM
- EC50 [2]: 180 nM
- hCB1 Ca Span [2]: 32%
- Ki [3]: 18 nM
- EC50 [4]: 300 nM
- hCB2 Ca Span [4]: 19%

Compound: CC(C)(NC(=O)c1nn(Cc2ccc(F)cc2)c2ccccc12)C1CCCN(CC(N)=O)C1 (stereo not drawn) [Example 30, N-{2-[1-(Carbamoylmethyl)piperidin-3-yl]propan-2-yl}-1-[(4-fluorophenyl)methyl]-1H-indazole-3-carboxamide]
- Ki [1]: 21 nM
- EC50 [2]: 330 nM
- hCB1 Ca Span [2]: 40%
- Ki [3]: 48 nM
- EC50 [4]: 63 nM
- hCB2 Ca Span [4]: 12%

Compound: CC(C)(NC(=O)c1nn(Cc2ccc(F)cc2)c2ccccc12)c1cccc(C(N)=O)c1 [Example 12, N-[2-(3-Carbamoylphenyl)propan-2-yl]-1-[(4-fluorophenyl)methyl]-1H-indazole-3-carboxamide]
- Ki [1]: 10 nM
- EC50 [2]: 21 nM
- hCB1 Ca Span [2]: 24%
- Ki [3]: 4 nM
- EC50 [4]: 27 nM
- hCB2 Ca Span [4]: 41%
